US20180099931A1 (AbbVie S.à.r.l., priority 2016, published 2018)
Like-named read-outs stand apart in the source and are kept apart here.

Target: T1, F508delCFTR (Homo sapiens, UniProt P13569, DEL508-508)
T1 construct: expressed in transfected cells; host or cells: CFBE41o- human lung-derived epithelial cells (CFBE4lo-F508delCFTR-HRP), doxycycline-inducible
Assay: Cell Surface Expression-Horse Radish Peroxidase (CSE-HRP) Assay;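 as to Maximum % activity (with co-corrector): co-corrector and positive control are both the same reference corrector at 2 µM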;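 as to Maximum % activity (without co-corrector): percent of the 2 µM on-plate positive control corrector response above DMSO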
Assay type: cell-based
Conditions: for Maximum % activity (with co-corrector): with co-corrector (2 μM); for Maximum % activity (with co-corrector) / Emax: maximum at any tested concentration, normalized to on-plate positive control; for Emax: without co-corrector, read-out: Maximum % activity (without co-corrector)

[1] = test compound without co-corrector, read-out: EC50 (without co-corrector)
[2] = with co-corrector (2 μM of 3-[(2R,4R)-4-({[1-(2,2-difluoro-1,3-benzodioxol-5-yl)cyclopropyl]carbonyl}amino)-7-methoxy-3,4-dihydro-2H-chromen-2-yl]benzoic acid), read-out: EC50 (with co-corrector)

T1 sequence (P13569 with tags, fused parts or gaps DEL508-508): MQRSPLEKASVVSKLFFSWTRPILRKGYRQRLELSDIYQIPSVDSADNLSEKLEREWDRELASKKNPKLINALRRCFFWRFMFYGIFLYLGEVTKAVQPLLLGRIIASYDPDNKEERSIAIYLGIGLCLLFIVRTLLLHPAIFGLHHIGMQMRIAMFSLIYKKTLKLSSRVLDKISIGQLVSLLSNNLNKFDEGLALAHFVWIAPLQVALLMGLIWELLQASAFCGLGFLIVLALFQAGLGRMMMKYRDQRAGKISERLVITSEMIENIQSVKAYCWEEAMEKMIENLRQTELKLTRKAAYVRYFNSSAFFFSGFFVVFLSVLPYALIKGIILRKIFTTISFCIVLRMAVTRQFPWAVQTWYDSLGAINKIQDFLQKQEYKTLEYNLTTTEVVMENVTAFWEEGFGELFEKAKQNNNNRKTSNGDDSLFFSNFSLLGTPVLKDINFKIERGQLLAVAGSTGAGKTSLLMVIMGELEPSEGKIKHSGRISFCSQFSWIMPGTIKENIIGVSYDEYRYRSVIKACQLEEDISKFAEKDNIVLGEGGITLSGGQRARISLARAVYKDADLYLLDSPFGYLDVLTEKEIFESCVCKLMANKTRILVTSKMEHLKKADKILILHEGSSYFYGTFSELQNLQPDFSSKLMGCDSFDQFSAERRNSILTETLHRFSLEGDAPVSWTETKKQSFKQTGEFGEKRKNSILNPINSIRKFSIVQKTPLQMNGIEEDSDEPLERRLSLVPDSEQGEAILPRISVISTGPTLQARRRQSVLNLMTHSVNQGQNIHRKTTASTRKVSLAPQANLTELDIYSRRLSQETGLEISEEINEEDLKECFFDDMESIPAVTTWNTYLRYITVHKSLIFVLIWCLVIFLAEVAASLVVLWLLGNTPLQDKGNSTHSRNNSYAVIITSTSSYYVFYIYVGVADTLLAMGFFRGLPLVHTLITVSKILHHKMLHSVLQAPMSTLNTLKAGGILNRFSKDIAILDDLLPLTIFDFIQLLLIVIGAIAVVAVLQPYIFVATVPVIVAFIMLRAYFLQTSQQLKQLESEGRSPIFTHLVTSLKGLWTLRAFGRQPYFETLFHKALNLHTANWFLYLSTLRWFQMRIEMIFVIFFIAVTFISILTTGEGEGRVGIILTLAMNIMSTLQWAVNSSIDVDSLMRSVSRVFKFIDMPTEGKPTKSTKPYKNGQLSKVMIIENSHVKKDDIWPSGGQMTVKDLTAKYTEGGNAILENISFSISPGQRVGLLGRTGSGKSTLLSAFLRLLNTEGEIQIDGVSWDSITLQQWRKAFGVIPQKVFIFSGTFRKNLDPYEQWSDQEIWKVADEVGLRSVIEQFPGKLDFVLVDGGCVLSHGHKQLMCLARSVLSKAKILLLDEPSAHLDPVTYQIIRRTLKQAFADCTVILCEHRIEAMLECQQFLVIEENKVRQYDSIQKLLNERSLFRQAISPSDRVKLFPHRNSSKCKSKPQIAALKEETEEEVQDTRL

| SMILES | EC50 [1] [nM] | EC50 [2] [nM] | Maximum % activity (with co-corrector) | Emax [%] |
| --- | --- | --- | --- | --- |
| COc1ccc(C2(C#N)CCC2)cc1CN[C@H]1[C@H](C(C)(C)C)[C@@H](C(=O)O)N(C(=O)C2CCCCC2)[C@H]1c1ccccc1 [Example I-155] | 1000 to 10000 | 1000 to 10000 | +++ (≥350) | 100 to 200 |
| COc1ccc(C(C)(C)C)cc1CN[C@H]1[C@H](C(C)(C)C)[C@@H](C(=O)O)N(C(=O)C(OC)C2CCCCC2)[C@H]1c1ccccc1 (stereo partly shown) [Example I-160] | < 1000 | < 1000 | +++ (≥350) | > 200 |
| COc1ccc(C(F)(F)F)cc1CN[C@H]1[C@H](C(C)(C)C)[C@@H](C(=O)O)N(C(=O)C2C3CCCC32)[C@H]1c1ccccc1 (stereo partly shown) [Example I-161] | 1000 to 10000 | 1000 to 10000 | +++ (≥350) | > 200 |
| COc1ccc(C(F)(F)F)cc1CN[C@H]1[C@H](C(C)(C)C)[C@@H](C(=O)O)N(C(=O)C2CC3CC3C2)[C@H]1c1ccccc1 (stereo partly shown) [Example I-162] | 1000 to 10000 | 1000 to 10000 | +++ (≥350) | 100 to 200 |
| COc1ccc(C(F)(F)F)cc1CN[C@H]1[C@H](C(C)(C)C)[C@@H](C(=O)O)N(C(=O)C2CCC(C(F)(F)F)C2)[C@H]1c1ccccc1 (stereo partly shown) [Example I-163] | 1000 to 10000 | 1000 to 10000 | +++ (≥350) | 100 to 200 |
| COc1ccc(C(F)(F)F)cc1CN[C@H]1[C@H](C(C)(C)C)[C@@H](C(=O)O)N(C(=O)C2CCC(C)(C)O2)[C@H]1c1ccccc1 (stereo partly shown) [Example I-164] | 1000 to 10000 | 1000 to 10000 | +++ (≥350) | > 200 |
| COc1ccc(C(C)(C)C)cc1CN[C@H]1[C@H](C(C)(C)C)[C@@H](C(=O)O)N(C(=O)[C@H]2COc3ccccc3O2)[C@H]1c1ccccc1 [Example I-167] | 1000 to 10000 | < 1000 | +++ (≥350) | > 200 |
| COc1cnc(C2CCC2)cc1CN[C@H]1[C@H](C(C)(C)C)[C@@H](C(=O)O)N(C(=O)C2CCCCC2)[C@H]1c1ccccc1 [Example I-168] | 1000 to 10000 | 1000 to 10000 | +++ (≥350) | < 100 |
| COc1ccc(C2(C(F)(F)F)CC2)nc1CN[C@H]1[C@H](C(C)(C)C)[C@@H](C(=O)O)N(C(=O)C2CCCCC2)[C@H]1c1ccccc1 [Example I-170] | 1000 to 10000 | 1000 to 10000 | +++ (≥350) | < 100 |
| COc1ccc([Si](C)(C)C)cc1CN[C@H]1[C@H](C(C)(C)C)[C@@H](C(=O)O)N(C(=O)C2CCCCC2)[C@H]1c1ccccc1 [Example I-171] | < 1000 | < 1000 |  |  |
| COc1ccc(C(C)(C)C)cc1CN[C@H]1[C@H](C(C)(C)C)[C@@H](C(=O)O)N(C(=O)C2CC3CCC(C2)O3)[C@H]1c1ccccc1 (stereo partly shown) [Example I-172] | 1000 to 10000 | 1000 to 10000 | +++ (≥350) | > 200 |
| COc1ccc(C(C)(C)C)cc1CN[C@@H]1[C@@H](C(C)(C)C)[C@H](C(=O)O)N(C(=O)C2CCCCC2)[C@H]1c1ccccc1 [Example I-173] | 1000 to 10000 | 1000 to 10000 | ++ (≥150 and <350) | < 100 |
| COc1ccc(C(F)(F)F)cc1CN[C@H]1[C@H](C(C)(C)OC)[C@@H](C(=O)O)N(C(=O)OC(C)C)[C@H]1c1ccccc1 [Example I-174] | 1000 to 10000 | 1000 to 10000 | +++ (≥350) | > 200 |
| COc1ccc(C2(C(F)(F)F)CC2)cc1CN[C@H]1[C@H](C(C)(C)C)[C@@H](C(=O)O)N(C(=O)[C@@H]2CCCCO2)[C@H]1c1cccnc1N(C)C [Example I-176] | 1000 to 10000 | 1000 to 10000 | +++ (≥350) | > 200 |
| COc1nc(C(C)(C)C)ccc1CN[C@H]1[C@H](C(C)(C)C)[C@@H](C(=O)O)N(C(=O)C2CCCCO2)[C@H]1c1ccccc1C(C)C (stereo partly shown) [Example I-177] | < 1000 | < 1000 | +++ (≥350) | > 200 |
| COc1nc(C(C)(C)C)ccc1CN[C@H]1[C@H](C(C)(C)C)[C@@H](C(=O)O)N(C(=O)C2CCCC(F)(F)C2)[C@H]1c1ccccc1 (stereo partly shown) [Example I-180] | 1000 to 10000 | 1000 to 10000 | +++ (≥350) | > 200 |
| COc1nc(C(C)(C)C)ccc1CN[C@H]1[C@H](C(C)(C)C)[C@@H](C(=O)O)N(C(=O)[C@H](C)c2ccccc2)[C@H]1c1ccccc1 [Example I-182] | 1000 to 10000 | 1000 to 10000 | +++ (≥350) | 100 to 200 |
| COc1ncc(C(F)(F)F)cc1CN[C@H]1[C@H](C(C)(C)C)[C@@H](C(=O)O)N(C(=O)C2CCCC(F)(F)C2)[C@H]1c1ccccc1 (stereo partly shown) [Example I-183] | 1000 to 10000 | < 1000 | +++ (≥350) | 100 to 200 |
| COc1ccc(SC(F)(F)F)cc1CN[C@H]1[C@H](C(C)(C)C)[C@@H](C(=O)O)N(C(=O)C2CCCCC2)[C@H]1c1ccccc1 [Example I-184] | 1000 to 10000 | < 1000 | +++ (≥350) | 100 to 200 |
| COc1ccc(C(C)(C)C)cc1CN[C@H]1[C@H](C(C)(C)C)[C@@H](C(=O)O)N(C(=O)C2CCCCC2)[C@H]1c1ccccc1C(C)C [Example I-185] | < 1000 | < 1000 | +++ (≥350) | > 200 |
| COc1ccc(C(C)(C)C)cc1CN[C@H]1[C@H](C(C)(C)C)[C@@H](C(=O)O)N(C(=O)C2CC3CC3C2)[C@H]1c1ccccc1 (stereo partly shown) [Example I-186] | 1000 to 10000 | 1000 to 10000 | +++ (≥350) | 100 to 200 |
| COc1nc(C(C)(C)C)ccc1CN[C@H]1[C@H](C(C)(C)C)[C@@H](C(=O)O)N(C(=O)C2CCCCC2)[C@H]1c1ccccc1C(C)C [Example I-187] | < 1000 | < 1000 | +++ (≥350) | > 200 |
| COc1ccc2ccccc2c1CN[C@H]1[C@H](C(C)(C)C)[C@@H](C(=O)O)N(C(=O)C2CCCCC2)[C@H]1c1ccccc1 [Example I-188] | 1000 to 10000 | 1000 to 10000 | ++ (≥150 and <350) | < 100 |
| COc1ncc([Si](C)(C)C)cc1CN[C@H]1[C@H](C(C)(C)C)[C@@H](C(=O)O)N(C(=O)[C@@H]2CCCC(F)(F)C2)[C@H]1c1ccccc1 [Example I-189] | < 1000 | < 1000 |  |  |
| COc1cc2c(cc1CN[C@H]1[C@H](C(C)(C)C)[C@@H](C(=O)O)N(C(=O)[C@@H]3CCCC(F)(F)C3)[C@H]1c1ccccc1)CCC2 [Example I-190] | 1000 to 10000 | < 1000 | +++ (≥350) | > 200 |
| COc1ccc(C(C)(C)C)cc1CN[C@H]1[C@H](C(C)(C)C)[C@@H](C(=O)O)N(C(=O)C2CCCS2(=O)=O)[C@H]1c1ccccc1 (stereo partly shown) [Example I-192] | 1000 to 10000 | 1000 to 10000 | +++ (≥350) | 100 to 200 |
| COc1nc(C(C)(C)C)ccc1CN[C@H]1[C@H](C(C)(C)C)[C@@H](C(=O)O)N(C(=O)OC(C)C)[C@H]1c1ccccc1 [Example I-194] | 1000 to 10000 | 1000 to 10000 | +++ (≥350) | > 200 |
| COc1nc(C(C)(C)C)ccc1CN[C@H]1[C@H](C(C)(C)C)[C@@H](C(=O)O)N(C(=O)C2CCCC(OC)C2)[C@H]1c1ccccc1 (stereo partly shown) [Example I-197] | 1000 to 10000 | 1000 to 10000 | +++ (≥350) | > 200 |
| COc1ccc(C(C)(C)C)cc1CN[C@H]1[C@H](C(C)(C)C)[C@@H](C(=O)O)N(C(=O)c2ccc3c(c2)OCCO3)[C@H]1c1cccnc1N(C)C [Example I-199] | 1000 to 10000 | 1000 to 10000 | +++ (≥350) | 100 to 200 |
